Test results as given in patent US20230151049A1, “Compounds Useful in HIV Therapy” (priority 2020, published 2023).
Read-outs that look alike come from different tables or passages of the source.

Assay: in vivo
Conditions: for Mean concentration of Example 4B: single IM 20 mg/kg equivalent of EFdA
Summary of the method: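 Three male Wistar Han rats (200-250 g), not fasted, received a single intramuscular gastrocnemius injection of prodrug suspension at 20 mg/kg EFdA equivalent. Tail-vein blood was taken into NaF/Na2EDTA, mixed 1:1 with 100 mM ammonium acetate pH 4, frozen, and analysed by LC-MS/MS.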

[1] = day 49, single IM Example 1A 20 mg/kg
[2] = day 56, single IM Example 1A 20 mg/kg
[3] = day 63, single IM Example 1A 20 mg/kg
[4] = day 70, single IM Example 1A 20 mg/kg
[5] = day 77, single IM Example 1A 20 mg/kg
[6] = day 84, single IM Example 1A 20 mg/kg
[7] = day 91, single IM Example 1A 20 mg/kg

## C#C[C@]1(COP(=O)(N[C@@H](Cc2ccccc2)C(=O)OCCCCCCCCCCCCCCCCCCCCCC)Oc2ccccc2)O[C@@H](n2cnc3c(N)nc(F)nc32)C[C@@H]1O (single isomer, unassigned) [Example 1A]
Day 21, single IM Example 1A 20 mg/kg
  Mean concentration of EFdA: BQL
Day 35, single IM Example 1A 20 mg/kg
  Mean concentration of EFdA: BQL
Day 42, single IM Example 1A 20 mg/kg
  Mean concentration of EFdA: BQL
[1]
  Mean concentration of EFdA: BQL
  Mean concentration of Example 1A: BQL (BQL = below quantification limit, 0.3-0.5 ng/mL for Example 1A and 0.1-o.3 ng/mL for EFdA)
[2]
  Mean concentration of EFdA: BQL
  Mean concentration of Example 1A: BQL (BQL = below quantification limit, 0.3-0.5 ng/mL for Example 1A and 0.1-o.3 ng/mL for EFdA)
[3]
  Mean concentration of EFdA: BQL
  Mean concentration of Example 1A: BQL (BQL = below quantification limit, 0.3-0.5 ng/mL for Example 1A and 0.1-o.3 ng/mL for EFdA)
[4]
  Mean concentration of EFdA: BQL
  Mean concentration of Example 1A: BQL (BQL = below quantification limit, 0.3-0.5 ng/mL for Example 1A and 0.1-o.3 ng/mL for EFdA)
[5]
  Mean concentration of EFdA: BQL
  Mean concentration of Example 1A: BQL (BQL = below quantification limit, 0.3-0.5 ng/mL for Example 1A and 0.1-o.3 ng/mL for EFdA)
[6]
  Mean concentration of EFdA: BQL
  Mean concentration of Example 1A: BQL (BQL = below quantification limit, 0.3-0.5 ng/mL for Example 1A and 0.1-o.3 ng/mL for EFdA)
[7]
  Mean concentration of EFdA: BQL
  Mean concentration of Example 1A: BQL (BQL = below quantification limit, 0.3-0.5 ng/mL for Example 1A and 0.1-o.3 ng/mL for EFdA)
male, Wistar Han, rat, in vivo, 20 mg/kg equivalent of EFdA, day 7, single IM Example 1A 20 mg/kg, read-out: Mean concentration of Example 1A
  concentration at 7 day: 6.38 ng/mL
male, Wistar Han, rat, in vivo, 20 mg/kg equivalent of EFdA, day 14, single IM Example 1A 20 mg/kg, read-out: Mean concentration of Example 1A
  concentration at 14 day: 1.86 ng/mL
male, Wistar Han, rat, in vivo, 20 mg/kg equivalent of EFdA, day 21, single IM Example 1A 20 mg/kg, read-out: Mean concentration of Example 1A
  concentration at 21 day: 3.42 ng/mL
male, Wistar Han, rat, in vivo, day 1, single IM Example 1A 20 mg/kg, read-out: Mean concentration of Example 1A
  concentration at 1 day: 65.3 ng/mL
male, Wistar Han, rat, in vivo, day 28, single IM Example 1A 20 mg/kg, read-out: Mean concentration of Example 1A
  concentration at 28 day: 2.72 ng/mL
male, Wistar Han, rat, in vivo, day 35, single IM Example 1A 20 mg/kg, read-out: Mean concentration of Example 1A
  concentration at 35 day: 1.34 ng/mL
male, Wistar Han, rat, in vivo, day 42, single IM Example 1A 20 mg/kg, read-out: Mean concentration of Example 1A
  concentration at 42 day: 0.633 ng/mL

## C#C[C@]1(COP(=O)(N[C@@H](Cc2ccccc2)C(=O)OCCCCCCCCCC)Oc2ccccc2)O[C@@H](n2cnc3c(N)nc(F)nc32)C[C@@H]1O (single isomer, unassigned) [Example 4B]
Day 0.0208
  Mean concentration of Example 4B: BQL (BQL = below quantification limit, 0.5 ng/mL for Example 4B and 0.5 to 1 ng/mL for EFdA)
Day 0.0417
  Mean concentration of Example 4B: BQL (BQL = below quantification limit, 0.5 ng/mL for Example 4B and 0.5 to 1 ng/mL for EFdA)
Day 0.125
  Mean concentration of Example 4B: BQL (BQL = below quantification limit, 0.5 ng/mL for Example 4B and 0.5 to 1 ng/mL for EFdA)
Day 0.208
  Mean concentration of Example 4B: BQL (BQL = below quantification limit, 0.5 ng/mL for Example 4B and 0.5 to 1 ng/mL for EFdA)
Day 0.292
  Mean concentration of Example 4B: BQL (BQL = below quantification limit, 0.5 ng/mL for Example 4B and 0.5 to 1 ng/mL for EFdA)
Day 1
  Mean concentration of Example 4B: BQL (BQL = below quantification limit, 0.5 ng/mL for Example 4B and 0.5 to 1 ng/mL for EFdA)
Day 2
  Mean concentration of Example 4B: BQL (BQL = below quantification limit, 0.5 ng/mL for Example 4B and 0.5 to 1 ng/mL for EFdA)
Day 3
  Mean concentration of Example 4B: BQL (BQL = below quantification limit, 0.5 ng/mL for Example 4B and 0.5 to 1 ng/mL for EFdA)
Day 4
  Mean concentration of Example 4B: BQL (BQL = below quantification limit, 0.5 ng/mL for Example 4B and 0.5 to 1 ng/mL for EFdA)
Day 5
  Mean concentration of Example 4B: BQL (BQL = below quantification limit, 0.5 ng/mL for Example 4B and 0.5 to 1 ng/mL for EFdA)
Day 7
  Mean concentration of Example 4B: BQL (BQL = below quantification limit, 0.5 ng/mL for Example 4B and 0.5 to 1 ng/mL for EFdA)
Day 14, single IM Example 4B 20 mg/kg equivalent of EFdA
  Mean concentration of EFdA: BQL (BQL = below quantification limit, 0.5 ng/mL for Example 4B and 0.5 to 1 ng/mL for EFdA)
Day 17, single IM Example 4B 20 mg/kg equivalent of EFdA
  Mean concentration of EFdA: BQL (BQL = below quantification limit, 0.5 ng/mL for Example 4B and 0.5 to 1 ng/mL for EFdA)
Day 21, single IM Example 4B 20 mg/kg equivalent of EFdA
  Mean concentration of EFdA: BQL (BQL = below quantification limit, 0.5 ng/mL for Example 4B and 0.5 to 1 ng/mL for EFdA)
Day 24, single IM Example 4B 20 mg/kg equivalent of EFdA
  Mean concentration of EFdA: BQL (BQL = below quantification limit, 0.5 ng/mL for Example 4B and 0.5 to 1 ng/mL for EFdA)
Day 28, single IM Example 4B 20 mg/kg equivalent of EFdA
  Mean concentration of EFdA: BQL (BQL = below quantification limit, 0.5 ng/mL for Example 4B and 0.5 to 1 ng/mL for EFdA)
Day 31, single IM Example 4B 20 mg/kg equivalent of EFdA
  Mean concentration of EFdA: BQL (BQL = below quantification limit, 0.5 ng/mL for Example 4B and 0.5 to 1 ng/mL for EFdA)

## C#C[C@]1(COP(=O)(N[C@@H](Cc2ccccc2)C(=O)OCCCCCCCCCCCCCCCCCCCCCC)Oc2ccccc2)O[C@@H](n2cnc3c(N)nc(F)nc32)C[C@@H]1O (single isomer, unassigned) [Example 1B]
Day 1, single IM Example 1B 62 mg/kg
  Mean concentration of EFdA: BQL (BQL = below quantification limit; 0.3 ng/mL for both)
Day 7, single IM Example 1B 62 mg/kg
  Mean concentration of EFdA: BQL (BQL = below quantification limit; 0.3 ng/mL for both)
Day 14, single IM Example 1B 62 mg/kg
  Mean concentration of EFdA: BQL (BQL = below quantification limit; 0.3 ng/mL for both)
Day 21, single IM Example 1B 62 mg/kg
  Mean concentration of EFdA: BQL (BQL = below quantification limit; 0.3 ng/mL for both)
Day 28, single IM Example 1B 62 mg/kg
  Mean concentration of EFdA: BQL (BQL = below quantification limit; 0.3 ng/mL for both)
Day 35, single IM Example 1B 62 mg/kg
  Mean concentration of EFdA: BQL (BQL = below quantification limit; 0.3 ng/mL for both)
Day 42, single IM Example 1B 62 mg/kg
  Mean concentration of EFdA: BQL (BQL = below quantification limit; 0.3 ng/mL for both)
Day 49, single IM Example 1B 62 mg/kg
  Mean concentration of EFdA: BQL (BQL = below quantification limit; 0.3 ng/mL for both)
Day 56, single IM Example 1B 62 mg/kg
  Mean concentration of EFdA: BQL (BQL = below quantification limit; 0.3 ng/mL for both)
Day 63, single IM Example 1B 62 mg/kg
  Mean concentration of EFdA: BQL (BQL = below quantification limit; 0.3 ng/mL for both)
Day 70, single IM Example 1B 62 mg/kg
  Mean concentration of EFdA: BQL (BQL = below quantification limit; 0.3 ng/mL for both)
Day 77, single IM Example 1B 62 mg/kg
  Mean concentration of EFdA: BQL (BQL = below quantification limit; 0.3 ng/mL for both)
Day 84, single IM Example 1B 62 mg/kg
  Mean concentration of EFdA: BQL (BQL = below quantification limit; 0.3 ng/mL for both)
male, Wistar Han, rat, in vivo, day 1, single IM Example 1B 62 mg/kg, read-out: Mean concentration of Example 1B
  concentration at 1 day: 70.5 ng/mL
male, Wistar Han, rat, in vivo, day 7, single IM Example 1B 62 mg/kg, read-out: Mean concentration of Example 1B
  concentration at 7 day: 8.75 ng/mL
male, Wistar Han, rat, in vivo, day 14, single IM Example 1B 62 mg/kg, read-out: Mean concentration of Example 1B
  concentration at 14 day: 6.78 ng/mL
male, Wistar Han, rat, in vivo, day 21, single IM Example 1B 62 mg/kg, read-out: Mean concentration of Example 1B
  concentration at 21 day: 3.53 ng/mL
male, Wistar Han, rat, in vivo, day 28, single IM Example 1B 62 mg/kg, read-out: Mean concentration of Example 1B
  concentration at 28 day: 4.36 ng/mL
male, Wistar Han, rat, in vivo, day 35, single IM Example 1B 62 mg/kg, read-out: Mean concentration of Example 1B
  concentration at 35 day: 1.72 ng/mL
male, Wistar Han, rat, in vivo, day 42, single IM Example 1B 62 mg/kg, read-out: Mean concentration of Example 1B
  concentration at 42 day: 1.92 ng/mL
male, Wistar Han, rat, in vivo, day 49, single IM Example 1B 62 mg/kg, read-out: Mean concentration of Example 1B
  concentration at 49 day: 0.912 ng/mL
male, Wistar Han, rat, in vivo, day 56, single IM Example 1B 62 mg/kg, read-out: Mean concentration of Example 1B
  concentration at 56 day: 1.33 ng/mL
male, Wistar Han, rat, in vivo, day 63, single IM Example 1B 62 mg/kg, read-out: Mean concentration of Example 1B
  concentration at 63 day: 0.748 ng/mL
male, Wistar Han, rat, in vivo, day 70, single IM Example 1B 62 mg/kg, read-out: Mean concentration of Example 1B
  concentration at 70 day: 0.767 ng/mL
male, Wistar Han, rat, in vivo, day 77, single IM Example 1B 62 mg/kg, read-out: Mean concentration of Example 1B
  concentration at 77 day: 1.55 ng/mL
male, Wistar Han, rat, in vivo, day 84, single IM Example 1B 62 mg/kg, read-out: Mean concentration of Example 1B
  concentration at 84 day: 2.48 ng/mL
